{"source": "paper PMC12090182", "about": "“Repurposing of the RIPK1-Selective Benzo[1,4]oxazepin-4-one Scaffold for the Development of a Type III LIMK1/2 Inhibitor” (ACS Chemical Biology, 2025)", "type_in_all_cases": "cell-based", "key": {"AXL": {"target": "AXL (Homo sapiens, UniProt P30530)", "conditions": "HEK-293T; 1 μM inhibitor, HEK293T cells", "how_it_was_run": "(§1)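 Tracer K10 competition in live HEK293T cells transiently expressing each K192 kinase construct (20 h). Compound tested at 1 μM; occupancy derived from donor/acceptor luminescence ratio.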"}, "BMX": {"target": "BMX (Homo sapiens, UniProt P51813)", "conditions": "HEK-293T; 1 μM inhibitor, HEK293T cells", "how_it_was_run": "as §1"}, "CDK15": {"target": "CDK15 (Homo sapiens, UniProt Q96Q40)", "conditions": "HEK-293T; 1 μM inhibitor, HEK293T cells", "how_it_was_run": "as §1"}, "CDK20": {"target": "CDK20 (Homo sapiens, UniProt Q8IZL9)", "conditions": "HEK-293T; 1 μM inhibitor, HEK293T cells", "how_it_was_run": "as §1"}, "CDK5": {"target": "CDK5 (Homo sapiens, UniProt Q00535)", "conditions": "HEK-293T; 1 μM inhibitor, HEK293T cells", "how_it_was_run": "as §1"}, "CSNK1D": {"target": "CSNK1D (Homo sapiens, UniProt P48730)", "conditions": "HEK-293T; 1 μM inhibitor, HEK293T cells", "how_it_was_run": "as §1"}, "CSNK1G2": {"target": "CSNK1G2 (Homo sapiens, UniProt P78368)", "conditions": "HEK-293T; 1 μM inhibitor, HEK293T cells", "how_it_was_run": "as §1"}, "DCLK3": {"target": "DCLK3 (Homo sapiens, UniProt Q9C098)", "conditions": "HEK-293T; 1 μM inhibitor, HEK293T cells", "how_it_was_run": "as §1"}, "DYRK1A": {"target": "DYRK1A (Homo sapiens, UniProt Q13627)", "conditions": "HEK-293T; 1 μM inhibitor, HEK293T cells", "how_it_was_run": "as §1"}, "DYRK1B": {"target": "DYRK1B (Homo sapiens, UniProt Q9Y463)", "conditions": "HEK-293T; 1 μM inhibitor, HEK293T cells", "how_it_was_run": "as §1"}, "EPHA7": {"target": "EPHA7 (Homo sapiens, UniProt Q15375)", "conditions": "HEK-293T; 1 μM inhibitor, HEK293T cells", "how_it_was_run": "as §1"}, "EPHB4": {"target": "EPHB4 (Homo sapiens, UniProt P54760)", "conditions": "HEK-293T; 1 μM inhibitor, HEK293T cells", "how_it_was_run": "as §1"}, "FGFR3": {"target": "FGFR3 (Homo sapiens, UniProt P22607)", "conditions": "HEK-293T; 1 μM inhibitor, HEK293T cells", "how_it_was_run": "as §1"}, "IGF1R": {"target": "IGF1R (Homo sapiens, UniProt P08069)", "conditions": "HEK-293T; 1 μM inhibitor, HEK293T cells", "how_it_was_run": "as §1"}, "IKBKE": {"target": "IKBKE (Homo sapiens, UniProt Q14164)", "conditions": "HEK-293T; 1 μM inhibitor, HEK293T cells", "how_it_was_run": "as §1"}, "ITK": {"target": "ITK (Homo sapiens, UniProt Q08881)", "conditions": "HEK-293T; 1 μM inhibitor, HEK293T cells", "how_it_was_run": "as §1"}, "LATS2": {"target": "LATS2 (Homo sapiens, UniProt Q9NRM7)", "conditions": "HEK-293T; 1 μM inhibitor, HEK293T cells", "how_it_was_run": "as §1"}, "MAP3K2": {"target": "MAP3K2 (Homo sapiens, UniProt Q9Y2U5)", "conditions": "HEK-293T; 1 μM inhibitor, HEK293T cells", "how_it_was_run": "as §1"}, "MAP3K21": {"target": "MAP3K21 (Homo sapiens, UniProt Q5TCX8)", "conditions": "HEK-293T; 1 μM inhibitor, HEK293T cells", "how_it_was_run": "as §1"}, "MAP3K4": {"target": "MAP3K4 (Homo sapiens, UniProt Q9Y6R4)", "sequence (Q9Y6R4 whole entry)": "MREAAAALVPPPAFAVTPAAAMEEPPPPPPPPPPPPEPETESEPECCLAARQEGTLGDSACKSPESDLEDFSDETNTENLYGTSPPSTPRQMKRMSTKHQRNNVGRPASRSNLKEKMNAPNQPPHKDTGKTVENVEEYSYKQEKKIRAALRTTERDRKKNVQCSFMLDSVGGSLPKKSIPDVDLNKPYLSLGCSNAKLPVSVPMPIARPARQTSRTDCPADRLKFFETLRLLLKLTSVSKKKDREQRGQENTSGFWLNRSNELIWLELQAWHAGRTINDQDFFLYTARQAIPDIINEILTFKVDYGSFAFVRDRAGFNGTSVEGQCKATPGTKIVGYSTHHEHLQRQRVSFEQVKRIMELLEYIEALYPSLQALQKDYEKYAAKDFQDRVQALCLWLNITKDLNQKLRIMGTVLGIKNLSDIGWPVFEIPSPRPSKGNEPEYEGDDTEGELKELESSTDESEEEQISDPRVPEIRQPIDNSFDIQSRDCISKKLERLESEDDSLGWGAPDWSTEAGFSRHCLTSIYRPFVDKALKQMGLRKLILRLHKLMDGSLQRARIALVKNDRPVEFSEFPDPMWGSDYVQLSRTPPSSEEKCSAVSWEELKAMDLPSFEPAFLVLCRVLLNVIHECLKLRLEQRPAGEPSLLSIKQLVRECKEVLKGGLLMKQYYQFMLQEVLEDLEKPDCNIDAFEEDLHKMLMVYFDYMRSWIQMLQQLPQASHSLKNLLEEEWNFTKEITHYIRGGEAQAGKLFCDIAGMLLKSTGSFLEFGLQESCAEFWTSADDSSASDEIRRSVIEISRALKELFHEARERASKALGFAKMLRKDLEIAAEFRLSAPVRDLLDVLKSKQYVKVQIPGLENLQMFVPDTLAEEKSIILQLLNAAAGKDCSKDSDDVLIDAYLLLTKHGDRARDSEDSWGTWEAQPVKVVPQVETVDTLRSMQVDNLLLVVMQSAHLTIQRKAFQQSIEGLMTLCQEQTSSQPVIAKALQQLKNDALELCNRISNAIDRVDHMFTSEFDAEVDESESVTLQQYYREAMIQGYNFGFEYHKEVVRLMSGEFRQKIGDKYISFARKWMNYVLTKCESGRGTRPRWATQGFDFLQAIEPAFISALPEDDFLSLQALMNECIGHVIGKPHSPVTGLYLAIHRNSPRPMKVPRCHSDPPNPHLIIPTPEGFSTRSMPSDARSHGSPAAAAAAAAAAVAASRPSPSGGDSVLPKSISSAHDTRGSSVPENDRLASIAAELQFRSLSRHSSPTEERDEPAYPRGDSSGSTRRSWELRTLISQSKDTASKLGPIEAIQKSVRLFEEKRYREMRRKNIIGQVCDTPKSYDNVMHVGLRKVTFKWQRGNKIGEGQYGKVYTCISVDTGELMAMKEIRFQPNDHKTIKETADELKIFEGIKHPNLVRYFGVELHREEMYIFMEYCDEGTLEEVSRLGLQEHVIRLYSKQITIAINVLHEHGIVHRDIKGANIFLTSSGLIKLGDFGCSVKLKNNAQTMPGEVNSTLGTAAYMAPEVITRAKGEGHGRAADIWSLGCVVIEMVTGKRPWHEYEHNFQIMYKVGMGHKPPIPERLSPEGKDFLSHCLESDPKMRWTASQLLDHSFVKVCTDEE", "conditions": "HEK-293T; 1 μM inhibitor, HEK293T cells", "how_it_was_run": "as §1"}, "MAP3K9": {"target": "MAP3K9 (Homo sapiens, UniProt P80192)", "conditions": "HEK-293T; 1 μM inhibitor, HEK293T cells", "how_it_was_run": "as §1"}, "MAPK11": {"target": "MAPK11 (Homo sapiens, UniProt Q15759)", "conditions": "HEK-293T; 1 μM inhibitor, HEK293T cells", "how_it_was_run": "as §1"}, "MARK2": {"target": "MARK2 (Homo sapiens, UniProt Q7KZI7)", "conditions": "HEK-293T; 1 μM inhibitor, HEK293T cells", "how_it_was_run": "as §1"}, "MARK4": {"target": "MARK4 (Homo sapiens, UniProt Q96L34)", "sequence (Q96L34 whole entry)": "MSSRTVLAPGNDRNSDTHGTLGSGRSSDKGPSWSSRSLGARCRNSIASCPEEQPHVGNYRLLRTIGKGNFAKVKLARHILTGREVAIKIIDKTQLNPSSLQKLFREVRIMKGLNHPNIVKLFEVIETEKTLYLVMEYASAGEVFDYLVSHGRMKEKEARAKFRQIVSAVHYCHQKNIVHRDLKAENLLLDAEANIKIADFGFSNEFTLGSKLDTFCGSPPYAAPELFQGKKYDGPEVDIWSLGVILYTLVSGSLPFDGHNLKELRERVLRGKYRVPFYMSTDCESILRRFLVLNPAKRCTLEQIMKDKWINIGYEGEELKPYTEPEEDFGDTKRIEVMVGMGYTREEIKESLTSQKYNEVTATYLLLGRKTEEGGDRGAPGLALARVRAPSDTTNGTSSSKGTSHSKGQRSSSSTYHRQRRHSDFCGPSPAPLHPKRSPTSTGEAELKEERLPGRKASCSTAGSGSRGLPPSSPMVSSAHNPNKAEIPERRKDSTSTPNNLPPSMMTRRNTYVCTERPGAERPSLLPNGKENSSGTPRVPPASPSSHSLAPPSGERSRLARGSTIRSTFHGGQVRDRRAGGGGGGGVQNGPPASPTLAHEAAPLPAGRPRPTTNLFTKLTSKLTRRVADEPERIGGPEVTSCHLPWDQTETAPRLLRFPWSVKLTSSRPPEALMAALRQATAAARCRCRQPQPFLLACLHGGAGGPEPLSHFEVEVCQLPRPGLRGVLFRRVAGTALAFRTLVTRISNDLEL", "conditions": "HEK-293T; 1 μM inhibitor, HEK293T cells", "how_it_was_run": "as §1"}, "MERTK": {"target": "MERTK (Homo sapiens, UniProt Q12866)", "conditions": "HEK-293T; 1 μM inhibitor, HEK293T cells", "how_it_was_run": "as §1"}, "NEK11": {"target": "NEK11 (Homo sapiens, UniProt Q8NG66)", "sequence (Q8NG66 whole entry)": "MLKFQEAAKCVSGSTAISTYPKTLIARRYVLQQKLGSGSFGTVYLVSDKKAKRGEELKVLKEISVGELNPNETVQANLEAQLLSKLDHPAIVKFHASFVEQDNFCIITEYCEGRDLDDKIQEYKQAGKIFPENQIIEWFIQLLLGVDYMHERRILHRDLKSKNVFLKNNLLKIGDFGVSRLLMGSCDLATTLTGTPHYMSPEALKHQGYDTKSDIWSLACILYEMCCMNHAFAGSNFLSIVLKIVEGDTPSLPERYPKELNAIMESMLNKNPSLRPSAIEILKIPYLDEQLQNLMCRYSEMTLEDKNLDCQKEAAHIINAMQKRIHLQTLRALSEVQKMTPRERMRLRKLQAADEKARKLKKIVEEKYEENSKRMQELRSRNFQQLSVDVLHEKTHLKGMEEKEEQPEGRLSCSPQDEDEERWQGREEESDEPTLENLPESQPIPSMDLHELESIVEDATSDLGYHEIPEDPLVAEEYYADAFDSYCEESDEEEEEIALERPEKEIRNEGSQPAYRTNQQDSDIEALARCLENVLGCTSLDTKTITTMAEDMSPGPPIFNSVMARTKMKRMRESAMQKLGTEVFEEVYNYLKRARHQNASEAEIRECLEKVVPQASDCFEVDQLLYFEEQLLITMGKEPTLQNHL", "conditions": "HEK-293T; 1 μM inhibitor, HEK293T cells", "how_it_was_run": "as §1"}, "NIM1K": {"target": "NIM1K (Homo sapiens, UniProt Q8IY84)", "sequence (Q8IY84 whole entry)": "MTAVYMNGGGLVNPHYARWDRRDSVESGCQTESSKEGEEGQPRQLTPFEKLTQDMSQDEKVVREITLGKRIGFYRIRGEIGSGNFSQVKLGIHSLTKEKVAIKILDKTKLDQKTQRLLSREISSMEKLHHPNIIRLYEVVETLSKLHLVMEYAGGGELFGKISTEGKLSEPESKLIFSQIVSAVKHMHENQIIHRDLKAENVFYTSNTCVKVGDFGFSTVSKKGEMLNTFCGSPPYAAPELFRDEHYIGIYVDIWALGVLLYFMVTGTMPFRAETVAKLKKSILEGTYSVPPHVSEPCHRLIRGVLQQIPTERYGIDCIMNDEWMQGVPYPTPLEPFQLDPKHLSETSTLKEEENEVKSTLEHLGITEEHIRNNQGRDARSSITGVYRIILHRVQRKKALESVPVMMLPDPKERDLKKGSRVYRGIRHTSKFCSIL", "conditions": "HEK-293T; 1 μM inhibitor, HEK293T cells", "how_it_was_run": "as §1"}, "NTRK1": {"target": "NTRK1 (Homo sapiens, UniProt P04629)", "conditions": "HEK-293T; 1 μM inhibitor, HEK293T cells", "how_it_was_run": "as §1"}, "NTRK2": {"target": "NTRK2 (Homo sapiens, UniProt Q16620)", "conditions": "HEK-293T; 1 μM inhibitor, HEK293T cells", "how_it_was_run": "as §1"}, "PLK2": {"target": "PLK2 (Homo sapiens, UniProt Q9NYY3)", "conditions": "HEK-293T; 1 μM inhibitor, HEK293T cells", "how_it_was_run": "as §1"}, "PRKACB": {"target": "PRKACB (Homo sapiens, UniProt P22694)", "conditions": "HEK-293T; 1 μM inhibitor, HEK293T cells", "how_it_was_run": "as §1"}, "PTK2": {"target": "PTK2 (Homo sapiens, UniProt Q05397)", "conditions": "1 μM inhibitor, HEK293T cells", "how_it_was_run": "as §1"}, "PTK6": {"target": "PTK6 (Homo sapiens, UniProt Q13882)", "sequence (Q13882 whole entry)": "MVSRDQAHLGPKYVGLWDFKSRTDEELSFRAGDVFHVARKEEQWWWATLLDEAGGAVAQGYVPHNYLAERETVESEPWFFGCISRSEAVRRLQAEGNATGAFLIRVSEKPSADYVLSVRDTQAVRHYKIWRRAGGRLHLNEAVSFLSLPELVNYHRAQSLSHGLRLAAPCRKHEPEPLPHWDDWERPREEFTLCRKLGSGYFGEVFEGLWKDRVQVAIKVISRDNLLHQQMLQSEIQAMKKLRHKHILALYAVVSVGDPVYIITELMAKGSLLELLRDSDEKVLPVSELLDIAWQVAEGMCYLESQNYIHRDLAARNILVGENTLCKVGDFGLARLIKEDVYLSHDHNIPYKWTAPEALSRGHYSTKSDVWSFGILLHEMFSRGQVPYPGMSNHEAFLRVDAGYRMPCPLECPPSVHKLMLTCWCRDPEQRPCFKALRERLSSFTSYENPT", "conditions": "HEK-293T; 1 μM inhibitor, HEK293T cells", "how_it_was_run": "as §1"}, "RPS6KA3": {"target": "RPS6KA3 (Homo sapiens, UniProt P51812)", "conditions": "HEK-293T; 1 μM inhibitor, HEK293T cells", "how_it_was_run": "as §1"}, "SRMS": {"target": "SRMS (Homo sapiens, UniProt Q9H3Y6)", "sequence (Q9H3Y6 whole entry)": "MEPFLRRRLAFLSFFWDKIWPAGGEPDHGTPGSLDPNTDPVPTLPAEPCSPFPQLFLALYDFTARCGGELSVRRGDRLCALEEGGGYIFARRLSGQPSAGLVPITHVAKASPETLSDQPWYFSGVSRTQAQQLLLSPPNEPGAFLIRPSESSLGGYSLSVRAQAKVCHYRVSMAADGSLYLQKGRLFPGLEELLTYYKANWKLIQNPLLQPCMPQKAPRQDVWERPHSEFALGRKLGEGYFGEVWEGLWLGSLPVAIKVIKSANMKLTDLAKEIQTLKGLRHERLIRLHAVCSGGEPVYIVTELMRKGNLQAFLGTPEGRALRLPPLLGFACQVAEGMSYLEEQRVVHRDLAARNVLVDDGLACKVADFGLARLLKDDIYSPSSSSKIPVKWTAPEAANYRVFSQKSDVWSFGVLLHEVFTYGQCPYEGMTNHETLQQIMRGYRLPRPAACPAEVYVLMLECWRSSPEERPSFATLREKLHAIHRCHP", "conditions": "HEK-293T; 1 μM inhibitor, HEK293T cells", "how_it_was_run": "as §1"}, "WEE1": {"target": "WEE1 (Homo sapiens, UniProt P30291)", "conditions": "HEK-293T; 1 μM inhibitor, HEK293T cells", "how_it_was_run": "as §1"}, "WEE2": {"target": "WEE2 (Homo sapiens, UniProt P0C1S8)", "sequence (P0C1S8 whole entry)": "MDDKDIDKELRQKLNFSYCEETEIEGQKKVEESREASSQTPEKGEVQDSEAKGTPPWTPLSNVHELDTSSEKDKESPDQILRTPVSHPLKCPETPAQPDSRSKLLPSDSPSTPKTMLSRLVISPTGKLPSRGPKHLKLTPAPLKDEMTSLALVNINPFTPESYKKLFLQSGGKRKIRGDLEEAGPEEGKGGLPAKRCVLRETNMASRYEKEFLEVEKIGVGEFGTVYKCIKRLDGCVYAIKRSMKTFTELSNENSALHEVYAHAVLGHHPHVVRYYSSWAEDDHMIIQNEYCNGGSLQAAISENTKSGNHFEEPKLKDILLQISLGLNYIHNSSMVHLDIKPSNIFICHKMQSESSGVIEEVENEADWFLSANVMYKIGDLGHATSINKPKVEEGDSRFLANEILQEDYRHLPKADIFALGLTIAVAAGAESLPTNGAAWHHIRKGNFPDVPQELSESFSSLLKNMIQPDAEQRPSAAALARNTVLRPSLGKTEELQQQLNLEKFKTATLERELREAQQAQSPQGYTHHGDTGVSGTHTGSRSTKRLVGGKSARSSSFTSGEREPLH", "conditions": "HEK-293T; 1 μM inhibitor, HEK293T cells", "how_it_was_run": "as §1"}}}
{"compound": "CN1C(=O)[C@@H](N2CCc3c(nn(Cc4ccccc4)c3C(N)=O)C2=O)COc2cc(Cl)ccc21", "note": "[Compound 10, (S)-2-benzyl-6-(8-chloro-5-methyl-4-oxo-2,3,4,5-tetrahydrobenzo[b][1,4]oxazepin-3-yl)-7-oxo-4,5,6,7-tetrahydro-2H-pyrazolo[3,4-c]pyridine-3-carboxamide]", "values": [{"measurement": "receptor occupancy at 1 µM", "setting": "AXL", "value": 2.28, "unit": "%"}, {"measurement": "receptor occupancy at 1 µM", "setting": "BMX", "value": -3.33, "unit": "%"}, {"measurement": "receptor occupancy at 1 µM", "setting": "CDK15", "value": -12.8, "unit": "%"}, {"measurement": "receptor occupancy at 1 µM", "setting": "CDK20", "value": 0.735, "unit": "%"}, {"measurement": "receptor occupancy at 1 µM", "setting": "CDK5", "value": -9.43, "unit": "%"}, {"measurement": "receptor occupancy at 1 µM", "setting": "CSNK1D", "value": 0.69, "unit": "%"}, {"measurement": "receptor occupancy at 1 µM", "setting": "CSNK1G2", "value": 3.57, "unit": "%"}, {"measurement": "receptor occupancy at 1 µM", "setting": "DCLK3", "value": 2.41, "unit": "%"}, {"measurement": "receptor occupancy at 1 µM", "setting": "DYRK1A", "value": -1.01, "unit": "%"}, {"measurement": "receptor occupancy at 1 µM", "setting": "DYRK1B", "value": -4.33, "unit": "%"}, {"measurement": "receptor occupancy at 1 µM", "setting": "EPHA7", "value": -2.24, "unit": "%"}, {"measurement": "receptor occupancy at 1 µM", "setting": "EPHB4", "value": 4.16, "unit": "%"}, {"measurement": "receptor occupancy at 1 µM", "setting": "FGFR3", "value": 22.5, "unit": "%"}, {"measurement": "receptor occupancy at 1 µM", "setting": "IGF1R", "value": -7.01, "unit": "%"}, {"measurement": "receptor occupancy at 1 µM", "setting": "IKBKE", "value": 6.88, "unit": "%"}, {"measurement": "receptor occupancy at 1 µM", "setting": "ITK", "value": 2.24, "unit": "%"}, {"measurement": "receptor occupancy at 1 µM", "setting": "LATS2", "value": 8.35, "unit": "%"}, {"measurement": "receptor occupancy at 1 µM", "setting": "MAP3K2", "value": -2.55, "unit": "%"}, {"measurement": "receptor occupancy at 1 µM", "setting": "MAP3K21", "value": -2.72, "unit": "%"}, {"measurement": "receptor occupancy at 1 µM", "setting": "MAP3K4", "value": 5.69, "unit": "%"}, {"measurement": "receptor occupancy at 1 µM", "setting": "MAP3K9", "value": 8.3, "unit": "%"}, {"measurement": "receptor occupancy at 1 µM", "setting": "MAPK11", "value": -1.99, "unit": "%"}, {"measurement": "receptor occupancy at 1 µM", "setting": "MARK2", "value": 16.3, "unit": "%"}, {"measurement": "receptor occupancy at 1 µM", "setting": "MARK4", "value": 8.31, "unit": "%"}, {"measurement": "receptor occupancy at 1 µM", "setting": "MERTK", "value": 0.31, "unit": "%"}, {"measurement": "receptor occupancy at 1 µM", "setting": "NEK11", "value": 10.1, "unit": "%"}, {"measurement": "receptor occupancy at 1 µM", "setting": "NIM1K", "value": 5.36, "unit": "%"}, {"measurement": "receptor occupancy at 1 µM", "setting": "NTRK1", "value": 0.821, "unit": "%"}, {"measurement": "receptor occupancy at 1 µM", "setting": "NTRK2", "value": 1.19, "unit": "%"}, {"measurement": "receptor occupancy at 1 µM", "setting": "PLK2", "value": 2.74, "unit": "%"}, {"measurement": "receptor occupancy at 1 µM", "setting": "PRKACB", "value": 0.396, "unit": "%"}, {"measurement": "receptor occupancy at 1 µM", "setting": "PTK2", "value": -12.2, "unit": "%"}, {"measurement": "receptor occupancy at 1 µM", "setting": "PTK6", "value": 2.55, "unit": "%"}, {"measurement": "receptor occupancy at 1 µM", "setting": "RPS6KA3", "value": -0.166, "unit": "%"}, {"measurement": "receptor occupancy at 1 µM", "setting": "SRMS", "value": 10.1, "unit": "%"}, {"measurement": "receptor occupancy at 1 µM", "setting": "WEE1", "value": -7.33, "unit": "%"}, {"measurement": "receptor occupancy at 1 µM", "setting": "WEE2", "value": -0.12, "unit": "%"}]}
